Measured values: article PMC9696605 (Viruses, 2022)

Assays:
[1] = molecular target: T1, hNedd4L-WW3* (Homo sapiens, UniProt Q96PU5); conditions: NMR titrations; cited from earlier work
T1 construct: GST (N, cleaved yes); made in house; host or cells: E. coli BL21(DE3), pGEX-4T2

[2] = molecular target: T1, hNedd4L-WW3*; conditions: binding to hNedd4L-WW3* domain, quoted from earlier work; ref 30 (Sang et al.); cited from earlier work
[3] = test system: KIR2DL2 positive NK cells vs 721.221-ICP47-C1 cells; experiment: CAM cytotoxicity assay, 721.221-ICP47-C1 targets; format: cell-based, human; conditions: NK cells from MS patients, 4 h, 26 °C, Figure 5c, MBP, pU24-6B, U24-7 p < 0.001, pU24-6A p: NS (Fisher exact test)
[4] = test system: NK cells from MS patients co-cultured with 721.221-ICP47-C1 cells; experiment: CD107a degranulation assay; format: cell-based, human; conditions: 721.221-ICP47-C1 cells incubated with pU24-6A, Figure 5e; p < 0.01 (Fisher exact test)
[5] = test system: actin; conditions: cited from earlier work
[6] = cited from earlier work
[7] = molecular target: Fyn-SH3 (Homo sapiens, UniProt P06241); conditions: phosphorylated MBP; cited from earlier work
Sequence of Fyn-SH3 (P06241 with tags, fused parts or gaps): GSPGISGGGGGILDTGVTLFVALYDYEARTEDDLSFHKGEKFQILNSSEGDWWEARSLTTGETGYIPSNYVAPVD

T1 sequence (Q96PU5 with tags, fused parts or gaps): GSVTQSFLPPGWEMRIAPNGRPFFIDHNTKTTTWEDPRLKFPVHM

CSCC[C@H](N)C(=O)N[C@@H](CC(=O)O)C(=O)N1CCC[C@H]1C(=O)N1CCC[C@H]1C(=O)N[C@@H](CCCNC(=N)N)C(=O)N[C@H](C(=O)N1CCC[C@H]1C(=O)N1CCC[C@H]1C(=O)N1CCC[C@H]1C(=O)N[C@@H](CO)C(=O)N[C@@H](Cc1ccc(O)cc1)C(=O)N[C@@H](CO)C(=O)N[C@@H](CCC(=O)O)C(=O)N[C@H](C(=O)N[C@@H](CC(C)C)C(=O)O)C(C)C)[C@@H](C)OP(=O)(O)O [pU24-6A]
hNedd4L-WW3* residue perturbed [1]: R492 was found to be perturbed
ΔG° [2]: (−3.49 ± 0.05)×10^1 kJ.mol^−1
ΔH° [2]: -14 ± 0.096 kcal/mol
ΔS° [2]: -79.8 ± 0.9 J. mol^−1.K^−1
Killing of 721.221-ICP47-C1 cells by KIR2DL2 positive NK cells [3]: maintained KIR2DL2 positive NK cells unresponsive towards 721.221-ICP47-C1 cells
CD107a expression, KIR2DL2 positive vs negative NK cells [4]: lower in KIR2DL2 positive NK cells in comparison with KIR2DL2 negative NK cells

MBP: myelin basic protein, a key component of the myelin sheath (IVTPRTPPPSQGKGR)
Effect of MBP phosphorylation on actin polymerization and bundling [5]: decrease the ability of MBP to polymerize actin and to bundle actin filaments
Killing of 721.221-ICP47-C1 cells by KIR2DL2 positive NK cells [3]: induced 721.221-ICP47-C1 cell killing
Effect of MBP phosphorylation on lipid interaction [6]: decreases the interaction between MBP and lipids
Effect of MBP phosphorylation on interaction with Fyn-SH3 [7]: reduced interaction with Fyn-SH3
